Structures can show the parent of a compound that is named as a salt.
melting point | SMILES
168 to 172 °C | CC(C)c1ccc2c(c1)CC[C@H]1[C@](C)(Cn3c(-c4cc(OCC(=O)O)ccc4NC(=O)C(F)(F)F)nc4cc(-c5ccccc5)ccc43)CCC[C@]21C
258 to 262 °C | CC(C)c1ccc2c(c1)CC[C@H]1[C@](C)(Cn3c(-c4cccc(OCC(=O)O)c4)nc4cc(-c5cccc([NH+]([O-])O)c5)ccc43)CCC[C@]21C (stereo partly shown)
210 to 215 °C | CC(C)c1ccc2c(c1)CC[C@H]1[C@](C)(Cn3c(-c4cccc(NC(=O)CC(=O)O)c4)nc4cc(-c5ccccc5)ccc43)CCC[C@]21C
59 to 72 °C | COc1cc(OCCCC(=O)O)ccc1-c1nc2cc(/C=C/c3ccccc3)ccc2n1C[C@]1(C)CCC[C@]2(C)c3ccc(C(C)C)cc3CC[C@@H]12
186 to 190 °C | CC(C)c1ccc2c(c1)CC[C@H]1[C@](C)(Cn3c(-c4cccc(OCC(=O)O)c4)nc4cc(-c5ccccc5N)ccc43)CCC[C@]21C
144 to 151 °C | CC(C)c1ccc2c(c1)CC[C@H]1[C@](C)(Cn3c(-c4cccc(OCCCC(=O)O)c4)nc4cc(-c5ccccc5)ccc43)CCC[C@]21C
185 °C | COc1cc(OCCCC(=O)O)ccc1-c1nc2cc(-c3cccc(C#N)c3)ccc2n1C[C@]1(C)CCC[C@]2(C)c3ccc(C(C)C)cc3CC[C@@H]12
235 °C | CC(C)c1ccc2c(c1)CC[C@H]1[C@](C)(Cn3c(-c4cccc(NC(=O)C(=O)O)c4)nc4cc(-c5ccccc5)ccc43)CCC[C@]21C
238 to 242 °C | CC(C)c1ccc2c(c1)CC[C@H]1[C@](C)(Cn3c(-c4cccc(OCC(=O)O)c4)nc4cc(-c5cccc(O)c5)ccc43)CCC[C@]21C
127 °C | CC(C)c1ccc2c(c1)CC[C@H]1[C@](C)(Cn3c(-c4cccc(OCC(=O)O)c4)nc4cc(-c5cccc(CN(C)C)c5)ccc43)CCC[C@]21C (as salt: trifluoroacetate)
166 °C (dec.) | CC(C)c1ccc2c(c1)CC[C@H]1[C@](C)(Cn3c(-c4cccc(OCC(=O)O)c4)nc4cc(-c5cccc(NS(C)(=O)=O)c5)ccc43)CCC[C@]21C
> 295 °C (dec.) | CC(C)c1ccc2c(c1)CC[C@H]1[C@](C)(Cn3c(-c4cc(OCC(=O)O)ccc4N)nc4cc(-c5ccccc5)ccc43)CCC[C@]21C
166 to 178 °C | CC(C)c1ccc2c(c1)CC[C@H]1[C@](C)(Cn3c(-c4cccc(N5CCC(C(=O)O)CC5)c4)nc4cc(-c5ccccc5)ccc43)CCC[C@]21C
133 °C (dec.) | CC(C)c1ccc2c(c1)CC[C@H]1[C@](C)(Cn3c(-c4cccc(OCC(=O)O)c4)nc4cc(-c5cccc(CN6CCOCC6)c5)ccc43)CCC[C@]21C (as salt: trifluoroacetate)
180 °C | CC(C)c1ccc2c(c1)CC[C@H]1[C@](C)(Cn3c(-c4cccc(NCC(=O)O)c4)nc4cc(-c5ccccc5)ccc43)CCC[C@]21C
179 °C | CC(=O)Nc1ccc(OCC(=O)O)cc1-c1nc2cc(-c3ccccc3)ccc2n1C[C@]1(C)CCC[C@]2(C)c3ccc(C(C)C)cc3CC[C@@H]12
200 °C | CC(C)c1ccc2c(c1)CC[C@H]1[C@](C)(Cn3c(-c4cccc(NC(=O)Cc5nnn[nH]5)c4)nc4cc(-c5ccccc5)ccc43)CCC[C@]21C
175 °C (dec.) | CC(=O)Nc1cccc(-c2ccc3c(c2)nc(-c2cccc(OCC(=O)O)c2)n3C[C@]2(C)CCC[C@]3(C)c4ccc(C(C)C)cc4CC[C@@H]23)c1
298 to 300 °C | CC(C)c1ccc2c(c1)CC[C@H]1[C@](C)(Cn3c(-c4ccc(CCC(=O)O)cc4)nc4cc(-c5ccccc5)ccc43)CCC[C@]21C

— US20050014810A1, “Use of substituted 2 phenylbenzimidazoles as medicaments” (Boehringer Ingelheim International GmbH, priority 2003, published 2005)
